Measurements reported in article PMC9596752, “Investigation of anti-diabetic potential and molecular simulation studies of dihydropyrimidinone derivatives” (Frontiers in Endocrinology, 2022).
Converted amounts (≈) assume the structure as drawn.

Biological target: α-glucosidase
Assay: in vitro α-glucosidase inhibition assay, absorbance at […] nm
Type: biochemical, Saccharomyces cerevisiae

O=C1NC2=C(C(=O)N(Cc3ccccc3)C2)C(c2ccc(O)cc2)N1 (stereo not shown) [A, 6-benzyl-4-(4-hydroxyphenyl)-3,4,6,7-tetrahydro-1H-pyrrolo[3,4-d]pyrimidine-2,5-dione]
IC50: 1.02 µg/mL (≈ 3.04 µM)
